Laboratory results: US7537910B2, “Lactamase amplification substrate” (Discoverx Corp., priority 2005, dated 2009)

Tests used:
[1] = system: EA (enzyme acceptor fragment of β-galactosidase); assay: Enzyme Fragment Complementation (EFC) assay; format: biochemical; details: 50 nM ED, EA plus chemiluminescence substrate, 60 min room temperature; compared to linear ED (cysteines capped with maleimide)
Method: For determination of EFC activity, 10 μL of 50 nM cyclic ED-Lactamase substrate (cED47mer) or 10 μl linear ED (Cysteines capped with maleimide, DiscoveRx, Fremont, Calif.) 50 nM was added to 20 μl EDDB Enzyme donor dilution buffer (MES 10 mM, NaCl 200 mM, EGTA 10 mM, BSA 2 mg/ml, NaN3 14.6 mM) (DiscoveRx, Fremont, Calif.) in a 384-well white plate.

TEM-1 lactamase = TEM-1 lactamase (Escherichia coli, UniProt P62593); details: cED47mer 50 nM, CHOK1 cell lysates, 3-hour incubation with varying TEM1 lactamase (picomole), read 1 hr after EA and substrate
Method: The assay comprises two basic steps: • 1) hydrolysis of the lactam in the cyclic ED lactamase substrate (cED 47mer) by the lactamase to yield a linear ED; and • 2) detection of the linear ED by EA and β-galactosidase chemiluminescent substrate. The lactamase reaction step comprises 101 of cell lysate (<4000 CHOK1 cells, DiscoveRx, Fremont, Calif.) or cell lysis buffer (part # 30-175, DiscoveRx, Fremont, Calif.), 10 μl cED47mer substrate at 50 nM and 10 μl of lactamase (TEM-1, Invitrogen Part # PV3575) at varying concentrations. The reaction mixture is then incubated at ambient temperature for various time intervals. The detection step comprises addition of 10 μL1 EA (1-2 μM, DiscoveRx, Fremont, Calif.) and 10 μl chemiluminescent substrate reagent (Applied Biosystems, Foster City, Calif.).
The chemiluminescence was read 1 hr after addition of EA and chemiluminescent substrate on a Packard Lumincount Reader (Packard Instruments, Meridien, Conn.) with the PMT set at 1100V and read time 1 second per well.

cED47mer: 47-mer β-galactosidase enzyme donor peptide (SEQ ID NO:1) cyclized through its two cysteines with bis-maleimide cephem compound 3 (CSLAVVLQQRRDWENPGVTQLNRLAAHPPFASWRNSEEARTDCPSQQL; cyclized via cysteines with bis-maleimide cephem compound 3; …ON)
EFC activity (FIG. 4) [1]: reduction of EFC activity | chemiluminescence signal after cleavage with lactamase (FIG. 5) (TEM-1 lactamase): increased with concentration of E. coli TEM1 lactamase (picomole) in a dose dependent fashion
